US20100022491A1, “4-HYDROXY-2-OXO-2,3-DIHYDRO-1,3-BENZOTHIAZOL-7YL COMPOUNDS FOR MODULATION OF B2-ADRENORECEPTOR ACTIVITY” (ASTRAZENECA AB, priority 2006, published 2010)
Structures can show the parent of a compound that is named as a salt.

What was measured:
[1] = target: T1, recombinant human adrenergic beta 1 receptors (Homo sapiens, UniProt P08588); assay: Adrenergic β1 selectivity binding assay ([125I]-Iodocyanopindolol); settings: inhibition of [125I]-Iodocyanopindolol (0.036 nM) binding; read-out: β1 bind p IC50 (converted)
T1 construct: purchased Euroscreen
Procedure, shortened: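 Displacement of [^125I]-Iodocyanopindolol (0.036 nM final) from human β1 receptor membranes, 2 hours at room temperature, pH 7.4 HEPES/EDTA/NaCl buffer. After filtration, scintillation counting; NSB set with 10 μM propranolol and subtracted. Four-parameter logistic fitting gave pIC50.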

[2] = target: T2, recombinant human α1D receptor (Homo sapiens, UniProt P25100); assay: Adrenergic α1D selectivity binding assay ([3H]-prazosin); settings: inhibition of [3H]-prazosin (0.3 nM) binding, HEK293 membranes; read-out: α1 bind pIC50 (converted)
T2 construct: expressed in transfected cells; host or cells: HEK293
T2 sequence (P25100 1-572): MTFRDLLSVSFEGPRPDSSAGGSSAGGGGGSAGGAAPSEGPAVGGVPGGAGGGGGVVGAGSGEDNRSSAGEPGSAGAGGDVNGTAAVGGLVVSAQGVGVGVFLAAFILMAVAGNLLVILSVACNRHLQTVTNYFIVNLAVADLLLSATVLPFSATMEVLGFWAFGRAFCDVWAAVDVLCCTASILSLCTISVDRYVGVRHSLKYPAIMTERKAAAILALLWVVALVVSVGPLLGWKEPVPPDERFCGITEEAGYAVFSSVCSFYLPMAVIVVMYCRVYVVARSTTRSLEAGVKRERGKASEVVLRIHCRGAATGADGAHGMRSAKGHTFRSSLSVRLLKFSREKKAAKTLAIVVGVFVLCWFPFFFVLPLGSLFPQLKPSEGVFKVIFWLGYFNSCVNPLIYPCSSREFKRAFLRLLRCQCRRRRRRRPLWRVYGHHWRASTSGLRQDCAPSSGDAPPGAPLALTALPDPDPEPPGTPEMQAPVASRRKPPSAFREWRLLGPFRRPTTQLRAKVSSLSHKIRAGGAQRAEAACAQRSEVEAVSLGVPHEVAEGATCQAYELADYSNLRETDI
Procedure, shortened: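 Displacement of [3H]-prazosin (0.3 nM) from recombinant human α1D receptor in HEK293-cell membranes, 2 h at room temperature, pH 7.4 HEPES/EDTA/gelatin buffer. Filtration and scintillation counting, non-specific binding set with 10 μM BMY7378; four-parameter logistic fit gives pIC50.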

T1 sequence (P08588 whole entry): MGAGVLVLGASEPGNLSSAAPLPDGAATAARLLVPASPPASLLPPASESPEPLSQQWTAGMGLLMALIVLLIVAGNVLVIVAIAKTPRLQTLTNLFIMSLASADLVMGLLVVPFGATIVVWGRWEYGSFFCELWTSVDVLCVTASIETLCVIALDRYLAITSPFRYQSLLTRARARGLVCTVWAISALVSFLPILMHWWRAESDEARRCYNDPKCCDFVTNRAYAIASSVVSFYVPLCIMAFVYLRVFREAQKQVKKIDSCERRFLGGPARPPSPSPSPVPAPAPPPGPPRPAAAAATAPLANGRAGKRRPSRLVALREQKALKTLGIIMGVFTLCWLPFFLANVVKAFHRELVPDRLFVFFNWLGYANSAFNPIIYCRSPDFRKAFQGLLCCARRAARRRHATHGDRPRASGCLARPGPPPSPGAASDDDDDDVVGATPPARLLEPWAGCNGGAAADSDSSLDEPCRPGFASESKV

IC50 [1] [µM] | IC50 [2] [µM] | SMILES
2.51 | 0.0501 | Cc1cccc(CCNCCC(=O)N(CCNCCc2ccc(O)c3[nH]c(=O)sc23)C2CCCCCC2)c1 [Example 85, N^1-Cycloheptyl-N^1-(2-{[2-(4-hydroxy-2-oxo-2,3-dihydro-1,3-benzothiazol-7-yl)ethyl]amino}ethyl)-N^3-[2-(3-methylphenyl)ethyl]-β-alaninamide bis-trifluoroacetic acid salt]
2.51 | 0.251 | COc1ccc(CCNCCC(=O)N(CCNCCc2ccc(O)c3[nH]c(=O)sc23)C2CCCCCC2)cc1OC [Example 86, N^1-Cycloheptyl-N^3-[2-(3,4-dimethoxyphenyl)ethyl]-N^1-(2-{[2-(4-hydroxy-2-oxo-2,3-dihydro-1,3-benzothiazol-7-yl)ethyl]amino}ethyl)-β-alaninamide bis-trifluoroacetic acid salt]
3.16 | 0.0501 | O=C(CCNCCc1ccc(O)c(Cl)c1)N(CCNCCc1ccc(O)c2[nH]c(=O)sc12)C1CCCCC1 [Example 89, N^3-[2-(3-chloro-4-hydroxyphenyl)ethyl]-N^1-cyclohexyl-N^1-(2-{[2-(4-hydroxy-2-oxo-2,3-dihydro-1,3-benzothiazol-7-yl)ethyl]amino}ethyl)-β-alaninamide bis-trifluoroacetic acid salt]
2.51 | 0.2 | O=C(CCNCCc1ccccc1)N(CCNCCc1ccc(O)c2[nH]c(=O)sc12)C1CCC(F)(F)CC1 [Example 4, N-(4,4-Difluorocyclohexyl)-N-(2-{[2-(4-hydroxy-2-oxo-2,3-dihydro-1,3-benzothiazol-7-yl)ethyl]amino}ethyl)-N^3-(2-phenylethyl)-β-alaninamide bis-trifluoroacetic acid salt]
0.2 | 0.0631 | O=C(CCNCCc1cccc(O)c1)N(CCNCCc1ccc(O)c2[nH]c(=O)sc12)C1CCCCCCC1 [Example 90, N^1-Cyclooctyl-N^1-(2-{[2-(4-hydroxy-2-oxo-2,3-dihydro-1,3-benzothiazol-7-yl)ethyl]amino}ethyl)-N^3-[2-(3-hydroxyphenyl)ethyl]-β-alaninamide bis-trifluoroacetic acid salt]
3.98 | 0.126 | CC1(C)CCC(N(CCNCCc2ccc(O)c3[nH]c(=O)sc23)C(=O)CCNCCc2cccc(O)c2)CC1 [Example 91, N^1-(4,4-Dimethylcyclohexyl)-N^1-(2-{[2-(4-hydroxy-2-oxo-2,3-dihydro-1,3-benzothiazol-7-yl)ethyl]amino}ethyl)-N^3-[2-(3-hydroxyphenyl)ethyl]-β-alaninamide bis-trifluoroacetic acid salt]
5.01 | 0.1 | O=C(CCNCCc1ccccc1)N(CCNCCc1ccc(O)c2[nH]c(=O)sc12)C1CCCCC1 [Example 5, N-Cyclohexyl-N-(2-{[2-(4-hydroxy-2-oxo-2,3-dihydro-1,3-benzothiazol-7-yl)ethyl]amino}ethyl)-N^3-(2-phenylethyl)-β-alaninamide bis-trifluoroacetic acid salt]
0.794 | 0.251 | O=C(CCNCCc1ccc(O)c2[nH]c(=O)sc12)N(CCNCCc1ccc(O)c2[nH]c(=O)sc12)C1CCCCCC1 [Example 87, bis-trifluoroacetic acid salt]
6.31 | 0.251 | O=C(CCNCCc1ccc2c(c1)OCCO2)N(CCNCCc1ccc(O)c2[nH]c(=O)sc12)C1CCCCCC1 [Example 88, N-Cycloheptyl-N^3-[2-(2,3-dihydro-1,4-benzodioxin-6-yl)ethyl]-N^1-(2-{[2-(4-hydroxy-2-oxo-2,3-dihydro-1,3-benzothiazol-7-yl)ethyl]amino}ethyl)-β-alaninamide bis-trifluoroacetic acid salt]
